Results: US9969695B2, “N-substituted imidazole carboxylic ester chiral compound containing an ether side chain, its preparation and application” (WEST CHINA HOSPITAL, SICHUAN UNIVERSITY, priority 2013, dated 2018)
Read-outs that look alike come from different tables or passages of the source.

Experiments:
Male SD rats [1] = assay: ED50 by the sequential method, extinction of rat body-righting reflex; type: in vivo; conditions: Rattus norvegicus, etomidate as Etomidate-Lipuro, extinction of body-righting reflex ≥30 s, read-out: 50% effective dose (ED50)
Experimental: (§1) Male SD rats (250˜300 g) were used as an experimental animal, and 50% effective dose (ED50) was determined by the sequential method. Three compounds were dissolved in a solvent of DMSO, and etomidate was used as the commercially-available formulation (B BRAUN, Etomidate-Lipuro®, 20 mg/10 mL). Based on the initial dose of 1 mg/kg, other dosages were adjusted as the ratio of 0.8, and the ED50 values of the three compounds and etomidate were determined. Extinction time ≥30 s for the rat body-righting reflex was the positive marker while no disappearance of the righting reflex was considered invalid. Based on the experimental results, four cross-points were formed, and the ED50 values were calculated. […] Then, the respective 2ED50 values of the three compounds and etomidate were taken in an equivalent dose, which were administered via the rat tail vein. The preliminary effects were evaluated in the four rat groups, which were given the three compounds of Formulas (I), (IV), (V) and etomidate, respectively, with 10 rats in each group. […] The last time of the Formula (I) compound and etomidate was 5-6 min, but the last time of the Formulas (IV) and (V) compounds was 10-20 min. […] DMSO had no pharmacological effects, and no adverse effects were observed. The onset time, the last time, and the adverse effects (types, incidence rates) induced by the three compounds and etomidate are shown in the following table:
(§2) Male SD rats (250˜300 g) were used as an experimental animal, and 50% effective dose (ED50) was determined by the sequential method. Hydrochlorides of the three compounds were dissolved in the solvent of normal saline, and etomidate was used as the commercially-available formulation (B BRAUN, Etomidate-Lipuro®, 20 mg/10 mL). The initial dose was 1 mg/kg, and the ratio of dosage variation was 0.8, which was applied in the determination of ED50 values of Formula (I) hydrochloride, Formula (I) hydrobromide, Formula (I) trifluoroacetate, and etomidate. Extinction time (≥30 s) of the rat body-righting reflex was the positive marker while no disappearance of the reflex was considered invalid. Based on the experimental results, four cross-points were formed, and then ED50 values were calculated. […] Then, the respective 2ED50 values of the three compounds and etomidate were taken in an equivalent dose, which were administered via the rat tail vein. The preliminary effects were evaluated in the four rat groups, which were given the three compounds of Formulas (I) hydrochloride, Formula (I) hydrobromide, Formula (I) trifluoroacetate, and etomidate, respectively, with 10 rats in each group. […] Palinesthesia time was in arrange of 5-10 min. During the test period, no significant difference was found in the types and the incidence rates of adverse effects in each group. DMSO had no pharmacological effects, and no adverse effect was found. The onset time, the last time, and the types and the incidence rates of adverse effects induced by the three salt compounds and etomidate are shown in the following table: […]

Male SD rats [2] = assay: Onset time, last time, palinesthesia time and adverse effects at 2ED50 via the rat tail vein; type: in vivo; conditions: for Incidence of adverse effect: Muscle tremor / Onset time: 10 rats per group; for Last time: disappearance to recovery of body-righting reflex
Experimental: as §1, §2

[3] = test system: self-synthesis of adrenocortical hormone; assay: Increase degree of cortical hormone (cortisol, corticosterone) in blood serum after ACTH stimulation, ELISA; type: in vivo; conditions: Beagle dogs; for Increase degree of corticosterone / Increase degree of cortisol: 2ED50, dexamethasone baseline, 1 h after ACTH
Experimental: Male Beagle dogs (10±2 kg) were selected as an experimental animal. After administration, the contents of corticosterone and cortisol in the blood serum of the Beagle dogs were determined by the ELISA kit and the enzyme-labelled instrument. The 20 Beagle dogs were divided into five groups, with four dogs in each group. After respective administration of dexamethasone (0.01 mg/kg), the level of adrenal cortex in the dog body was lowered to the baseline, and those levels of corticosterone and cortisol at this time were used as the base value (baseline). […] After 10 min, ACTH (adrenocortical hormone) was given to stimulate and cause an increased level of cortex in the dog body. One hour after administration of ACTH, both corticosterone and cortisol levels in the blood serum of the Beagle dogs were determined, and the ratio of the peak value to the base value of the cortex levels was calculated. This ratio indicated the increase degree of the cortical hormone. A greater degree indicated a less inhibitory effect of the medicine on the cortical hormone. After administration, compounds of Formulas (I), (IV) and (V), DMSO, and the increase degree of the cortical hormone followed by stimulation of ACTH are shown in the following table:
Male Beagle dogs (10±2 kg) were selected as an experimental animal. After administration, the contents of corticosterone and cortisol in the blood serum of the Beagle dogs were determined by the ELISA kit and the enzyme-labelled instrument. The 20 Beagle dogs were divided into five groups, with four dogs in each group. After respective administration of dexamethasone (0.01 mg/kg), the level of adrenal cortex in the dog body was lowered to the baseline, and the levels of corticosterone and cortisol at this time were used as the baseline. Then, the equivalent doses (2ED50) of the compounds of Formula (I) hydrochloride (3.62 mg/kg), hydrobromide (3.86 mg/kg), trifluoroacetate (4.66 mg/kg), the positive control medicine Etomidate-Lipuro® (0.9 mg/kg), and the equal-volume of solvent DMSO were respectively administrated into the dogs of the five groups. After 10 min, ACTH was given to stimulate and cause the cortex levels increase in the dog body. One hour after administration of ACTH, both the cortical hormone levels were determined, and the ratio of the peak value to the baseline of cortex levels was calculated. This ratio indicated the increase degree of the cortical hormone. A greater degree of increase indicated a less inhibitory effect of the medicine on the cortical hormone. After administrations, the three salts of the Formula (I) compound, DMSO, the increase degree of the cortical hormone followed by stimulation of ACTH are shown in the following table: […]

[4] = after one intravenous bolus of etomidate 3 mg/kg, cited from earlier work
11β-hydroxylase = 11β-hydroxylase versus GABAA; cited from earlier work
[5] = Example 9, 2ED50 via tail vein, listed as etomidate
[6] = Example 10, ratio of peak value to base value
[7] = Example 11, ratio of peak value to baseline

Question: What does the source list for `CCOC(=O)c1cncn1[C@H](C)c1ccccc1` [Etomidate, reference compound]?
Answer: ED50 (Male SD rats [1]; Example 8, compounds in DMSO): 1.14 mg/kg; ED50 (Male SD rats [1]; Example 9, salts in normal saline): 1.06 mg/kg; sedative-hypnotic and general anesthetic effects (conclusion in words) (Male SD rats [2]; Example 8): good sedative-hypnotic and general anesthetic effects; Incidence of adverse effect: Muscle tremor (Male SD rats [2]; Example 8, 2ED50 via tail vein): 70%; Onset time (Male SD rats [2]; Example 8, 2ED50 via tail vein): Immediate; Onset time (Male SD rats [2]; Example 8, 2ED50 via tail vein, listed as etomidate): immediate action; Last time (Male SD rats [2]; Example 8, 2ED50 via tail vein): 6.1 ± 1.3 min; Palinesthesia tune (Male SD rats [2]; Example 8, 2ED50 via tail vein, recovery to full recovery of body-righting reflex): 4.5 ± 1.2 min; sedative-hypnotic and general anesthetic effects (conclusion in words) (Male SD rats [2]; Example 9): good sedative-hypnotic and general anesthetic effects; Incidence of adverse effect: Muscle tremor (Male SD rats [2]; Example 9, 2ED50 via tail vein): 60%; Onset time (Male SD rats [2]; Example 9, 2ED50 via tail vein): Immediate; Onset time (Male SD rats [2]; [5]): immediate action; Last time (Male SD rats [2]; Example 9, 2ED50 via tail vein): 5.9 ± 1.5 min; Last time (Male SD rats [2]; [5]): 4 to 8 min; Palinesthesia time (Male SD rats [2]; Example 9, 2ED50 via tail vein, recovery to full recovery of body-righting reflex): 5.1 ± 1.3 min; Increase degree of corticosterone [3, 6]: 2.53 ± 0.65; Increase degree of cortisol [3, 6]: 2.12 ± 0.56; inhibition on cortical hormone (conclusion in words) ([3]; Example 10, after stimulation by ACTH): significantly inhibit the self-synthesis of adrenocortical hormone; cortical hormone increase after stimulation by ACTH (conclusion in words) ([3]; Example 11): significantly suppress the self-synthesis of adrenocortical hormone; Increase degree of corticosterone [3, 7]: 2.80 ± 0.76; Increase degree of cortisol [3, 7]: 2.46 ± 0.87; time for the plasma medicine concentration maintaining [4]: 8 min; time of plasma medicine concentration maintaining above 8 ng/mL [4]: up to 8 h; minimal effective concentration for inhibition of cortical hormone synthesis ([4]; plasma): 8 ng/mL; minimal effective concentration of anesthetic effect ([4]; plasma): 110 ng/mL; ability of binding to 11β-hydroxylase relative to binding to GABAA acceptor (11β-hydroxylase): 100 times
